What was measured:
[1] = cited from earlier work
[2] = Thermal stability of NBPT at high temperature; assay type: physicochemical; conditions: followed by sludge/precipitate formation after weeks of high heat
Procedure: Another problem is that certain nitrification inhibitors and/or urease inhibitors degrade at certain high temperatures. […] Often times temperatures in agricultural fields (e.g., corn fields, wheat fields, etc.) reach in excess of 35° C. and sometimes can reach up to 45° C. or higher. For example, at 45° C. […] Thus, it is also desirable to have solvent systems containing nitrification inhibitors and/or urease inhibitors that are stabilized at high temperatures, such as those utilized in hot climates or weather. This invention addresses the addition of co-solvents and/or stabilizers to prolong the chemical and physical stability of formulated liquid agricultural compositions containing (i) one or more nitrification inhibitors, (ii) one or more urease inhibitors or (iii) a combination of both (i) and (ii). In one embodiment, the at least one urease inhibitor is NBPT. In one embodiment, the at least one nitrification inhibitor a natural nitrification inhibitor. In yet another embodiment, the at least one nitrification inhibitor is neem.

[3] = typically above 45° C.; cited from earlier work

N#CNC(=N)N [dicyandiamide, Dicyandiamide]
solubility in water [1]: about 41 g/l

CCCCNP(N)(N)=S [NBPT, N-(n-butyl)-thiophosphoric triamide]
appearance of NBPT formulated in different solvents at 45° C. [2]: changes color in days from colorless to a darker green/brown
degradation at higher temperature [3]: degrades rapidly

— US20170283340A1, “ALKYL THIOPHOSPHORIC TRIAMIDE AND NEEM OIL SOLVENT SYSTEMS FOR USE IN AGRICULTURAL APPLICATIONS” (RHODIA OPERATIONS, priority 2016, published 2017)
